The results in this text go back to US20240132522A1, “HETEROCYCLIC COMPOUNDS AND METHODS OF USE THEREOF” (1cBio, Inc., priority 2022, published 2024).

Counter-ions that a name gives are not always drawn.

Assay [1] addresses recombinant human PARP1 (Homo sapiens, UniProt P09874). In words: PARP1 fluorescence polarization binding assay. The settings on record: binding IC50, GST-tagged PARP1 20 nM, PARPi-FL probe 3 nM, 4 h at RT. Here is the method: In some embodiments, the biological assay is described in the Examples herein. In some embodiments, the biological assay measures PARP-1 binding by way of fluorescence polarization measurements. In some embodiments, binding of a test compound to recombinant human PARP-1 reduces the amount of binding of a fluorescent probe, and consequently reduces the detected level of fluorescence polarization. In some test compound stock solutions are prepared in a solvent, e.g., DMSO, and are serially diluted into a range of concentrations, e.g., 15 concentrations, 14 concentrations, 13 concentrations, 12 concentrations, 11 concentrations, 10 concentrations, 9 concentrations, 8 concentrations, 7 concentrations, 6 concentrations, or 5 concentrations, by a dilution factor, e.g., a 10-fold dilution factor, a 9-fold dilution factor, an 8-fold dilution factor, a 7-fold dilution factor, a 6-fold dilution factor, a 5-fold dilution factor, a 4-fold dilution factor, a 3-fold dilution factor, or a 2-fold dilution factor. In some embodiments, the serial dilutions, e.g., 100 nL of serial dilution, 90 nL of serial dilution, 80 nL of serial dilution, 70 nL of serial dilution, 60 nL of serial dilution, 50 nL of serial dilution, 30 nL of serial dilution, 20 nL of serial dilution, or 10 nL of serial dilution, are added to a multi-welled plate, e.g., a 1536-well plate, a 384-well plate, or a 96-well plate. In some embodiments, PARP-1, e.g., GST-tagged PARP-1, is diluted in assay buffer, e.g., 50 μL of assay buffer, 40 μL of assay buffer, e.g., 30 μL of assay buffer, 20 μL of assay buffer, 10 μL of assay buffer, or 5 μL of assay buffer, and is added to the plate. In some embodiments, the plate is centrifuged, e.g., at 1000 rpm for 1 min, and incubated, e.g., incubated for 30 minutes at room temperature (RT). In some embodiments, a fluorescent probe, e.g., 10 μL of 6 nM PARPi-FL (TOCRIS, Cat #6461), is diluted in an assay buffer and is added to the plate. In some embodiments, the final concentrations of PARP-1 and fluorescent probe are 20 nM and 3 nM, respectively, in a total volume of 20 μL. In some embodiments, the plate is centrifuged, e.g., at 1000 rpm for 1 minute, and the assay plate is incubated, e.g., for 4 h at RT. In some embodiments, the samples in each well are read using a plate reader, e.g., an Envision instrument using excitation=480 nm, and emission wavelength=FITC FP-P pol 535 nm & FITC FP-S pol 535 nm). In some embodiments, percent inhibition is calculated from mP values using Inhibition (%)=[1−(mPc−mPL)/(mPH−mPL)]×100%, where mPc, mPL, and mPH are the mP values of test compound, Low controls, and High controls, respectively. In some embodiments, binding IC50 values are calculated using XLFit (equation 201: y=A+((B−A)/(1+((x/C)^D))), where A=bottom, B=top, C=IC50, and D=slope) with a floating top and bottom for curves.
Compounds of the present disclosure were tested in a PARP1 fluorescence polarization binding assay at Pharmaron (Beijing, P.R. China). In this biochemical assay, binding of test compound to recombinant human PARP1 reduces the amount of binding of a fluorescent probe, and consequently reduces the detected level of fluorescence polarization. Test compound stock solutions were prepared in DMSO and then serially diluted into 10 concentrations by 3-fold dilution in a 384-well plate using a TECAN EVO200. 60 nL of each dilution was transferred to the plate using an Echo550 (Labcyte), and then 10 μL 40 nM GST-tagged PARP1 (BPS Bioscience, Cat #80501), diluted in assay buffer (50 mM Tris pH 8.0, 0.001% Triton X-100, 10 mM MgCl2, 150 mM NaCl), was added to the plate. After a centrifugation at 1000 rpm for 1 min, the assay plate was incubated for 30 min at RT. 10 μL 6 nM PARPi-FL (TOCRIS, Cat #6461), diluted using assay buffer, was then added to the plate. The final concentrations of PARP1 and PARPi-FL were 20 nM and 3 nM, respectively, in a total volume of 20 μL. […]

In assay [2] the test system is DLD-1 BRCA2(−/−) colorectal adenocarcinoma cells. In words: Cell viability assay (Cell Titer-Glo), DLD-1 BRCA2(−/−). The format is cell-based. The settings on record: Homo sapiens, DLD-1, 168 h, 7 days, 200 cells/well. The text has this: (§1) In some embodiments, the biological assay measures the effects that compounds of the present disclosure may have on the viability of cells, e.g., the viability of cancer cells. In some embodiments, DLD-1 wild-type and DLD-1 BRCA2(−/−) colorectal adenocarcinoma cells, an isogenic pair of cell lines differing in the presence and absence, respectively, of both BRCA2 alleles, are used to measure the effect of the disclosed compounds on the viability of cancer cells.
(§2) In some embodiments, the cells are harvested during the logarithmic growth period, counted, and seeded at a specified count in the wells of a 96- or 384-well cell culture plate. In some embodiments, after seeding, the cells are incubated, e.g., at 37° C., 5% CO2 overnight. In some embodiments, the cells are treated with compounds, e.g., with serially diluted test compounds at 8-11 concentrations within a desired concentration range, e.g., from 1 nM-10 μM, for the generation of dose-response curves. In some embodiments, the plate is further incubated, e.g., for another 3-7 days in a humidified incubator at 37° C. and 5% CO2. In some embodiments, cell viability is assessed by luminescence measurement after addition of Cell Titer-Glo reagent (Promega, Madison, Wis.) according to the manufacturer's instructions. In some embodiments, cell viability IC50 values are calculated using XLFit, equation 201: y=A+((B−A)/(1+((x/C)^D))), where A=bottom, B=top, C=IC50, and D=slope. In some embodiments, the effects of the test compounds on the viability of other cell lines such as MDA-MB-436, MDA-MB-231, SUM149PT, HCC1395, and UWB1.289 are determined in an analogous method.
(§3) Compounds of the present disclosure were tested for their effects on the viability of cancer cells. DLD-1 wild-type and DLD-1 BRCA2(−/−) colorectal adenocarcinoma cells, an isogenic pair of cell lines differing in the presence and absence, respectively, of both BRCA2 alleles, were used. The cells were harvested during the logarithmic growth period, counted, and seeded at 50 cells/well for DLD-1 wild-type and 200 cells/well for DLD-1 BRCA2(−/−) in a 384-well cell culture plate. After seeding, cells were incubated at 37° C., 5% CO2 overnight. Cells were treated with serially diluted test compounds at 10 concentrations from 1.5 nM-30 μM) for generation of dose response curves. The plate was further incubated for another 7 days in a humidified incubator at 37° C. and 5% CO2. Cell viability was assessed by luminescence measurement after addition of Cell Titer-Glo reagent (Promega, Madison, Wis.) according to the manufacturer's instructions. Cell viability IC50 values were calculated using XLFit, equation 201: y=A+((B−A)/(1+((x/C)^D))), where A=bottom, B=top, C=IC50, and D=slope. IC50 values are shown in Table B and are presented in ranges, in which “+++”<300 nM, 300 nM≤“++”<3000 nM, and “+”≥3000 nM. Effects of the test compounds on the viability of other cell lines such as MDA-MB-436, MDA-MB-231, SUM149PT, HCC1395, and UWB1.289 are determined in an analogous method.

Assay [3] relates to DLD-1 wild-type colorectal adenocarcinoma cells. In words: Cell viability assay (Cell Titer-Glo), DLD-1 wild-type. The format is cell-based. Conditions: Homo sapiens, DLD-1, 168 h, 7 days, 50 cells/well.
Text: as §1, §2, §3
For orientation: ATP-based viability assays read luminescence as a measure of living cells.

Chain of recombinant human PARP1 (P09874 whole entry): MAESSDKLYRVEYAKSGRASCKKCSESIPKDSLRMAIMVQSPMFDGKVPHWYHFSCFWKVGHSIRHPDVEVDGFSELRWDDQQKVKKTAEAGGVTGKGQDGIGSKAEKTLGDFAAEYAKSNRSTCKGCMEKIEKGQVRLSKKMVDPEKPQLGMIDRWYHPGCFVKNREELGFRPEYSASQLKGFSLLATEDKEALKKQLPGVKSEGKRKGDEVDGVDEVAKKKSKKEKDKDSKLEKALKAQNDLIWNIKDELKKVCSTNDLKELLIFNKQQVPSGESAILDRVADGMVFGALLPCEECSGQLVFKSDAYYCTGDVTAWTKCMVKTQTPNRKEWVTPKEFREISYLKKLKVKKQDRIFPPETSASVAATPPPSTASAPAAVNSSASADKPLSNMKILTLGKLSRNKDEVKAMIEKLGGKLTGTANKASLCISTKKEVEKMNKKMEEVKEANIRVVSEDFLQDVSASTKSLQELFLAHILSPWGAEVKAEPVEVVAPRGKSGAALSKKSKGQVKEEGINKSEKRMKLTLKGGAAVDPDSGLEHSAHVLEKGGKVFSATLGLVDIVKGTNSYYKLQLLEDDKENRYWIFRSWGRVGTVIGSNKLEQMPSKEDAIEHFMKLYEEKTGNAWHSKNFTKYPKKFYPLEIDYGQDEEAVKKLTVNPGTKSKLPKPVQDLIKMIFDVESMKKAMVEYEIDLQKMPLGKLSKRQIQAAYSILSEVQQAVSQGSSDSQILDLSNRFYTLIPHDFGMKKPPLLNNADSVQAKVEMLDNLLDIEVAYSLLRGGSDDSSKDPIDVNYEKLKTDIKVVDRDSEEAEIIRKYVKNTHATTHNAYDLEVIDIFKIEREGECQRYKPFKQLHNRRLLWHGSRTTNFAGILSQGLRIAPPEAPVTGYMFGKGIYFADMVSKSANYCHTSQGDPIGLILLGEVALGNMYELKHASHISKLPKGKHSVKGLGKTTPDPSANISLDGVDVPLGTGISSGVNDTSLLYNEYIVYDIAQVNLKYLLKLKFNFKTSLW

The term IC50 denotes the point on the concentration scale where inhibition reaches its midpoint. Consider `CCc1cc2ncc(CN3C4CCC3CN(c3ccc(C(=O)NC)nc3)C4)cc2[nH]c1=O` [Compound No. 3, 5-(8-((7-ethyl-6-oxo-5,6-dihydro-1,5-naphthyridin-3-yl)methyl)-3,8-diazabicyclo[3.2.1]octan-3-yl)-N-methylpicolinamide], for which the figures for the IC50 in assay [1], in assay [2] and in assay [3] were < 0.1 µM, 0.3 to 3 µM and ≥ 3 µM, respectively.
Turning to `CCc1cc2ncc(CN3CC4CCC(C3)N4c3ccc(C(=O)NC)nc3)cc2[nH]c1=O` [Compound No. 8, 5-(3-((7-ethyl-6-oxo-5,6-dihydro-1,5-naphthyridin-3-yl)methyl)-3,8-diazabicyclo[3.2.1]octan-8-yl)-N-methylpicolinamide], the IC50 was 0.1 to 3 µM in assay [1], ≥ 3 µM in assay [2] and ≥ 3 µM in assay [3].
For `CCc1cc2ncc(CN3CC4(C3)CN(c3ccc(C(=O)NC)nc3C)C4)cc2[nH]c1=O` [Compound No. 139, 5-(6-((7-ethyl-6-oxo-5,6-dihydro-1,5-naphthyridin-3-yl)methyl)-2,6-diazaspiro[3.3]heptan-2-yl)-N,6-dimethylpicolinamide formate], the results for the IC50 in assay [1], in assay [2] and in assay [3] were 0.1 to 3 µM, ≥ 3 µM and ≥ 3 µM, respectively.
With `CCc1cc2ncc(CN3CC4(C3)CN(C(=O)c3ccc(F)cc3F)C4)cc2[nH]c1=O` [Compound No. 181, 7-({6-[(2,4-difluorophenyl)carbonyl]-2,6-diazaspiro[3.3]heptan-2-yl}methyl)-3-ethyl-1H-1,5-naphthyridin-2-one formate], the IC50 in assay [1], in assay [2] and in assay [3] was ≥ 3 µM each time.
